This is an account of results in US6476263B1, “Compounds for inhibiting β-amyloid peptide release and/or its synthesis” (Elan Pharmaceuticals, Inc., priority 1996, dated 2002).

SMILES strings stand for the structures. Non-standard residues stand in square brackets, D forms with d. Residues, ends and D or L forms follow the SMILES beside them. ξ: configuration not given here. *: point of attachment. Isovaleryl = CC(C)CC(=O)*; ξChg = NC(C(=O)O)C1CCCCC1

Usually melting point stands for the temperature of the solid-liquid transition.

`CCC[C@H](NC(=O)Cc1cc(F)cc(F)c1)C(=O)N[C@H](C(=O)OC)c1ccccc1` [Example 253, N-[N-(3,5-Difluorophenylacetyl)-L-norvalinyl]-L-phenylglycine Methyl Ester] had a melting point of 204 to 205 °C. In the case of `COC(=O)C(NC(=O)[C@H](C)NC(=O)Cc1cc(F)cc(F)c1)c1cccs1` (stereo partly drawn) [Example 176, Methyl N-[N-(3,5-Difluorophenylacetyl)-L-alaninyl]-2-amino-2-(2-thienyl)acetate], the melting point is 161 to 162 °C. For `CCCC[C@H](NC(=O)[C@H](C)NC(=O)Cc1cc(F)cc(F)c1)C(=O)OC` [Example 1, Methyl N-[N-(3,5-Difluorophenylacetyl)-L-alaninyl]-(S)-2-aminohexanoate] the value was 142 to 143 °C.

In turn, `COC(=O)[C@H](Cc1ccc(O)cc1)NC(=O)[C@H](C)NC(=O)Cc1cc(F)cc(F)c1` [Example 15, N-[N-(3,5-Difluorophenylacetyl)-L-alaninyl]-L-tyrosine Methyl Ester] showed a melting point of 85 to 88 °C. The compound `COC(=O)[C@H](Cc1ccccc1)NC(=O)[C@H](C)NC(=O)Cc1ccncc1` [Example 133, N-[N-(4-Pyridylacetyl)-L-alaninyl]-L-phenylalanine Methyl Ester] had a melting point of 152 to 154 °C. With `CCOC(=O)C(NC(=O)[C@H](C)NC(=O)Cc1cc(F)cc(F)c1)c1cc2ccccc2s1` (stereo partly drawn) [Example 174, Ethyl N-[N-(3,5-Difluorophenylacetyl)-L-alaninyl]-2-amino-2-(benzothiophen-2-yl)acetate] the figure was 189 to 190 °C. In turn, `C[C@H](NC(=O)Cc1cc(F)cc(F)c1)C(=O)NCC(=O)OCc1ccccc1` [Example 73, N-[N-(3,5-Difluorophenylacetyl)-L-alaninyl]glycine Benzyl Ester] showed a melting point of 167.5 °C. For `COC(=O)[C@H](Cc1ccccc1)NC(=O)[C@H](C)NC(=O)Cc1ccccc1` [Example 204, N-[N-(Phenylacetyl)-L-alaninyl]-L-phenylalanine Methyl Ester] the value was 148 to 149.5 °C; for `CC(C)C(NC(=O)Cc1cc(F)cc(F)c1)C(=O)NC(=O)C(N)c1ccccc1` (mixture of isomers) [Example 249, N-[N-(3,5-Difluorophenylacetyl)-D,L-valinyl]-D,L-phenylglycinamide], 260.3 to 264.3 °C; for `C[C@H](NC(=O)Cc1cc(F)cc(F)c1)C(=O)N[C@@H](C(=O)OC(C)(C)C)c1cccs1` [Example 179, tert-Butyl N-[N-(3,5-Difluorophenylacetyl)-L-alaninyl]-(S)-2-amino-2-(2-thienyl)acetate], 117 to 118 °C. With `COC(=O)[C@H](Cc1cccnc1)NC(=O)[C@H](C)NC(=O)Cc1cc(F)cc(F)c1` [Example 20, Methyl N-[N-(3,5-Difluorophenylacetyl)-L-alaninyl]-(S)-2-amino-3-(3-pyridyl)propionate] the figure was 101 to 103 °C; with `COC(=O)[C@H](Cc1ccccc1)NC(=O)[C@H](C)NC(=O)CC1CC1` [Example 72, N-[N-(Cyclopropylacetyl)-L-alaninyl]-L-phenylalanine Methyl Ester], 128 to 131 °C. For `COC(=O)C(NC(=O)[C@H](C)NC(=O)Cc1cc(F)cc(F)c1)c1cc2cc(Cl)ccc2s1` (stereo partly drawn) [Example 173, Methyl N-[N-(3,5-Difluorophenylacetyl)-L-alaninyl]-2-amino-2-(5-chlorobenzothiophen-2-yl)acetate] the value was 189 to 190 °C.

Compound `CCOC(=O)C(C)(NC(=O)[C@H](C)NC(=O)Cc1cc(F)cc(F)c1)c1ccccc1` (stereo partly drawn) [Example 123, Ethyl N-[N-(3,5-Difluorophenylacetyl)-L-alaninyl]-2-amino-2-phenylpropionate] returned a melting point of 128 to 130 °C. For `CCOC(=O)[C@H](C)NC(=O)C(NC(=O)CC(C)C)C1CCCCC1` (stereo partly drawn) [Example 128, N-[N-(Isovaleryl)-2-amino-2-cyclohexylacetyl]-L-alanine Ethyl Ester] (Isovaleryl-[ξChg]-Ala-OEt) the value was 220 to 224 °C; for `COC(=O)[C@@H](NC(=O)[C@@H](NC(=O)Cc1cc(F)cc(F)c1)C1CC1)c1ccccc1` [Example 257, N-[N-(3,5-Difluorophenylacetyl)-(S)-2-amino-2-(cyclopropyl)acetyl]-L-phenylglycine Methyl Ester], 225 to 226.5 °C; for `COC(=O)C(NC(=O)[C@H](C)NC(=O)Cc1cc(F)cc(F)c1)c1csc2ccccc12` (stereo partly drawn) [Example 175, Methyl N-[N-(3,5-Difluorophenylacetyl)-L-alaninyl]-2-amino-2-(benzothiophen-3-yl)acetate], 185 to 186 °C. With `C[C@H](NC(=O)CC1CCCC1)C(=O)N[C@H](C(=O)OC(C)(C)C)c1ccccc1` [Example 328, N-[N-(Cyclopentaneacetyl)-L-alaninyl]-L-phenylglycine tert-Butyl Ester] the figure was 133 to 138 °C; with `COC(=O)[C@@H](NC(=O)[C@@H](NC(=O)Cc1cc(F)cc(F)c1)C(C)C)c1ccccc1` [Example 194, N-[N-(3,5-Difluorophenylacetyl)-L-valinyl]-L-phenylglycine Methyl Ester], 226.5 °C. As to `NC(C(=O)NC(=O)C(NC(=O)Cc1cc(F)cc(F)c1)c1ccccc1)c1ccccc1` (mixture of isomers) [Example 248, N-[N-(3,5-Difluorophenylacetyl)-D,L-phenylglycinyl]-D,L-phenylglycinamide], the melting point lay within 285.5 to 288.5 °C. With `CCOC(=O)[C@H](C)NC(=O)[C@@H](NC(=O)CC1CCCCC1)c1ccccc1` [Example 110, N-[N-(Cyclohexylacetyl)L-phenylglycinyl]-L-alanine Ethyl Ester] the figure was 196 to 198 °C; with `COC(=O)[C@@H](NC(=O)[C@@H](NC(=O)Cc1cc(F)cc(F)c1)c1ccccc1)c1ccccc1` [Example 199, N-[N-(3,5-Difluorophenylacetyl)-L-phenylglycinyl]-L-phenylglycine Methyl Ester], 222.8 °C; with `CC(C)COC(=O)[C@H](C)NC(=O)[C@H](Cc1ccccc1)NC(=O)CC(C)C` [Example 84, N-[N-(Isovaleryl)-L-phenylalaninyl]-L-alanine iso-butyl Ester], 135 to 138 °C.

Take `C[C@H](NC(=O)Cc1cc(F)cc(F)c1)C(=O)N[C@@H](Cc1ccccc1)C(=O)OCCCBr` [Example 38, N-[N-(3,5-Difluorophenylacetyl)-L-alaninyl]-L-phenylalanine 3-Bromopropyl Ester]: the melting point is 138 to 142 °C. With `COC(=O)[C@@H](NC(=O)[C@H](NC(=O)Cc1cc(F)cc(F)c1)c1cccs1)c1ccccc1` [Example 259, N-[N-(3,5-Difluorophenylacetyl)-(S)-2-amino-2-(thien-2-yl)acetyl]-L-phenylglycine Methyl Ester] the figure was 230.8 °C; with `O=C(Cc1cc(F)cc(F)c1)N[C@H](C(=O)N[C@H](CO)c1ccccc1)c1ccccc1` [Example 245, N-[N-(3,5-Difluorophenylacetyl)-L-phenylglycinyl]-L-phenylglycinol], 231.4 °C.
